Measurements reported in ChEMBL document CHEMBL1153550, “In vitro study of Candida tropicalis isolates exhibiting paradoxical growth in the presence of high concentrations of caspofungin” (2007).
Values after ≈ are worked out from the molar mass of the structure shown. Active and inactive are the calls of the source. The calls are words filed in the database; no cut-off is given here.

Columns and labels:
Candida tropicalis [1] = experiment: Antifungal activity against 10^5 CFU/ml Candida tropicalis isolate 3 in RPMI 1640 medium at 12.5 ug/ml treated for 24 hrs followed by incubation in drug free medium for 48 hrs by broth microdilution method; type: functional, organism-based
Candida tropicalis [2] = experiment: Antifungal activity Candida tropicalis ATCC 750 in RPMI 1640 medium at 12.5 ug/ml after 24 hrs by time-kill assay; type: functional, organism-based
Candida tropicalis [3] = experiment: Antifungal activity against 2 x 10^7 CFU/ml Candida tropicalis isolate 11 in RPMI 1640 medium after 24 hrs by broth microdilution method; type: functional; details: isolate 11, 24 h
Candida tropicalis [4] = experiment: Antifungal activity against 2 x 10^7 CFU/ml Candida tropicalis isolate 7 in RPMI 1640 medium after 24 hrs by broth microdilution method; type: functional; details: isolate 7, 24 h
Candida tropicalis [5] = experiment: Antifungal activity against Candida tropicalis isolate 14 in RPMI 1640 medium assessed as paradoxical growth at 12.5 ug/ml after 24 hrs by broth microdilution method; type: functional, organism-based
Candida tropicalis [6] = experiment: Antifungal activity against 2 x 10^7 CFU/ml Candida tropicalis isolate 13 in antibiotic medium 3 after 24 hrs by broth microdilution method; type: functional; details: isolate 13, 24 h
Candida tropicalis [7] = experiment: Antifungal activity against Candida tropicalis ATCC 750 in RPMI 1640 medium assessed as paradoxical growth at 12.5 ug/ml after 48 hrs by broth microdilution method; type: functional, organism-based
Candida tropicalis [8] = experiment: Antifungal activity against 2 x 10^7 CFU/ml Candida tropicalis isolate 12 in antibiotic medium 3 after 24 hrs by broth microdilution method; type: functional; details: isolate 12, 24 h
Candida tropicalis [9] = experiment: Antifungal activity against Candida tropicalis isolate 6 in RPMI 1640 medium assessed as paradoxical growth at 6.25 ug/ml after 24 hrs by broth microdilution method; type: functional, organism-based
Candida tropicalis [10] = experiment: Antifungal activity against 10^5 CFU/ml Candida tropicalis isolate 2 in RPMI 1640 medium at 12.5 ug/ml treated for 24 hrs followed by incubation in drug free medium for 48 hrs by broth microdilution method; type: functional, organism-based
Candida tropicalis [11] = experiment: Antifungal activity against > 2 x 10^7 CFU/ml Candida tropicalis isolate 6 in antibiotic medium 3 assessed as partial growth after 24 hrs by broth microdilution method; type: functional, organism-based
Candida tropicalis [12] = experiment: Antifungal activity against Candida tropicalis isolate 5 in RPMI 1640 medium assessed as paradoxical growth at 6.25 ug/ml after 48 hrs by broth microdilution method; type: functional, organism-based
Candida tropicalis [13] = experiment: Fungistatic activity against Candida tropicalis clinical isolates at 12.5 ug/ml after 24 to 48 hrs by time-kill assay; type: functional, organism-based
Candida tropicalis [14] = experiment: Antifungal activity against Candida tropicalis ATCC 750 in RPMI 1640 medium assessed as paradoxical growth at 12.5 ug/ml after 24 hrs by broth microdilution method; type: functional, organism-based
Candida tropicalis [15] = experiment: Antifungal activity against 10^5 CFU/ml Candida tropicalis isolate 4 in RPMI 1640 medium at 12.5 ug/ml treated for 24 hrs followed by incubation in drug free medium for 48 hrs by broth microdilution method; type: functional, organism-based
Candida tropicalis [16] = experiment: Antifungal activity against 2 x 10^7 CFU/ml Candida tropicalis ATCC 750 in antibiotic medium 3 after 24 hrs by broth microdilution method; type: functional; details: ATCC 750, 24 h
Candida tropicalis [17] = experiment: Antifungal activity against Candida tropicalis isolate 4 in RPMI 1640 medium assessed as paradoxical growth at 6.25 ug/ml after 48 hrs by broth microdilution method; type: functional, organism-based
Candida tropicalis [18] = experiment: Antifungal activity against Candida tropicalis isolate 8 in RPMI 1640 medium assessed as paradoxical growth at 12.5 ug/ml after 24 hrs by broth microdilution method; type: functional, organism-based
Candida tropicalis [19] = experiment: Antifungal activity against 10^5 CFU/ml Candida tropicalis isolate 1 in RPMI 1640 medium at 12.5 ug/ml treated for 48 hrs followed by incubation in drug free medium for 48 hrs by broth microdilution method; type: functional, organism-based
Candida tropicalis [20] = experiment: Antifungal activity against 10^5 CFU/ml Candida tropicalis isolate 6 in antibiotic medium 3 at 6.25 ug/ml treated for 24 hrs followed by incubation in drug free medium for 48 hrs by broth microdilution method; type: functional, organism-based
Candida tropicalis [21] = experiment: Antifungal activity against 2 x 10^7 CFU/ml Candida tropicalis isolate 12 in RPMI 1640 medium after 24 hrs by broth microdilution method; type: functional; details: isolate 12, 24 h
Candida tropicalis [22] = experiment: Antifungal activity against Candida tropicalis isolate 6 in RPMI 1640 medium assessed as paradoxical growth at 12.5 ug/ml after 24 hrs by broth microdilution method; type: functional, organism-based
Candida tropicalis [23] = experiment: Antifungal activity against > 2 x 10^7 CFU/ml Candida tropicalis isolate 4 in RPMI 1640 medium assessed as partial growth after 24 hrs by broth microdilution method; type: functional, organism-based
Candida tropicalis [24] = experiment: Antifungal activity against > 2 x 10^7 CFU/ml Candida tropicalis isolate 10 in RPMI 1640 medium assessed as partial growth after 24 hrs by broth microdilution method; type: functional, organism-based
Candida tropicalis [25] = experiment: Antifungal activity against Candida tropicalis isolate 4 in RPMI 1640 medium assessed as paradoxical growth at 12.5 ug/ml after 24 hrs by broth microdilution method; type: functional, organism-based
Candida tropicalis [26] = experiment: Antifungal activity against > 2 x 10^7 CFU/ml Candida tropicalis isolate 14 in RPMI 1640 medium assessed as partial growth after 24 hrs by broth microdilution method; type: functional, organism-based
Candida tropicalis [27] = experiment: Antifungal activity against 2 x 10^7 CFU/ml Candida tropicalis isolate 9 in RPMI 1640 medium after 24 hrs by broth microdilution method; type: functional; details: isolate 9, 24 h
Candida tropicalis [28] = experiment: Antifungal activity against 10^5 CFU/ml Candida tropicalis isolate 6 in RPMI 1640 medium at 12.5 ug/ml treated for 48 hrs followed by incubation in drug free medium for 48 hrs by broth microdilution method; type: functional, organism-based
Candida tropicalis [29] = experiment: Antifungal activity against 2 x 10^7 CFU/ml Candida tropicalis isolate 15 in RPMI 1640 medium after 24 hrs by broth microdilution method; type: functional; details: isolate 15, 24 h
Candida tropicalis [30] = experiment: Antifungal activity against 10^5 CFU/ml Candida tropicalis isolate 8 in RPMI 1640 medium at =< 0.09 ug/ml after 24 hrs followed by incubation in drug free medium for 48 hrs by broth microdilution method; type: functional, organism-based
Candida tropicalis [31] = experiment: Antifungal activity against 10^5 CFU/ml Candida tropicalis isolate 14 in RPMI 1640 medium at 12.5 ug/ml treated for 24 hrs followed by incubation in drug free medium for 48 hrs by broth microdilution method; type: functional, organism-based
Candida tropicalis [32] = experiment: Antifungal activity against Candida tropicalis isolate 5 in RPMI 1640 medium assessed as paradoxical growth at 12.5 ug/ml after 48 hrs by broth microdilution method; type: functional, organism-based
Candida tropicalis [33] = experiment: Antifungal activity against > 2 x 10^7 CFU/ml Candida tropicalis isolate 3 in RPMI 1640 medium assessed as partial growth after 24 hrs by broth microdilution method; type: functional, organism-based
Candida tropicalis [34] = experiment: Antifungal activity against 10^5 CFU/ml Candida tropicalis isolate 11 in RPMI 1640 medium at 12.5 ug/ml treated for 24 hrs followed by incubation in drug free medium for 48 hrs by broth microdilution method; type: functional, organism-based
Candida tropicalis [35] = experiment: Antifungal activity against 10^5 CFU/ml Candida tropicalis isolate 3 in RPMI 1640 medium at 12.5 ug/ml treated for 48 hrs followed by incubation in drug free medium for 48 hrs by broth microdilution method; type: functional, organism-based

With `CC[C@H](C)C[C@H](C)CCCCCCCCC(=O)N[C@H]1C[C@@H](O)[C@@H](NCCN)NC(=O)[C@@H]2[C@@H](O)CCN2C(=O)[C@H]([C@H](O)CCN)NC(=O)[C@H]([C@H](O)[C@@H](O)c2ccc(O)cc2)NC(=O)[C@@H]2C[C@@H](O)CN2C(=O)[C@H]([C@@H](C)O)NC1=O` [CASPOFUNGIN] the Activity (Candida tropicalis [1]) was “inactive”, the Activity (Candida tropicalis [2]) was “inactive” and the MIC (Candida tropicalis [3]) was 0.024 µg/mL (≈ 0.022 µM). The MIC (Candida tropicalis [4]) was 0.024 µg/mL (≈ 0.022 µM), the Activity (Candida tropicalis [5]) was “inactive” and the MIC (Candida tropicalis [6]) was 0.024 µg/mL (≈ 0.022 µM). The Activity (Candida tropicalis [7]) was “Active”, the MIC (Candida tropicalis [8]) was 0.024 µg/mL (≈ 0.022 µM) and the Activity (Candida tropicalis [9]) was “inactive”. The Activity (Candida tropicalis [10]) was “inactive”, the Activity (Candida tropicalis [11]) was “inactive” and the Activity (Candida tropicalis [12]) was “inactive”. The Activity (Candida tropicalis [13]) was “Active”, the Activity (Candida tropicalis [14]) was “inactive” and the Activity (Candida tropicalis [15]) was “inactive”. The MIC (Candida tropicalis [16]) was 0.024 µg/mL (≈ 0.022 µM), the Activity (Candida tropicalis [17]) was “inactive” and the Activity (Candida tropicalis [18]) was “inactive”. For the same molecule, the Activity (Candida tropicalis [19]) was “inactive”, the Activity (Candida tropicalis [20]) was “inactive” and the MIC (Candida tropicalis [21]) was 0.024 µg/mL (≈ 0.022 µM). For the same molecule, the Activity (Candida tropicalis [22]) was “inactive”, the Activity (Candida tropicalis [23]) was “inactive” and the Activity (Candida tropicalis [24]) was “inactive”. The Activity (Candida tropicalis [25]) was “inactive”, the Activity (Candida tropicalis [26]) was “inactive” and the MIC (Candida tropicalis [27]) was 0.024 µg/mL (≈ 0.022 µM). The Activity (Candida tropicalis [28]) was “inactive”, the MIC (Candida tropicalis [29]) was 0.024 µg/mL (≈ 0.022 µM) and the Activity (Candida tropicalis [30]) was “Active”. For the same molecule, the Activity (Candida tropicalis [31]) was “inactive”, the Activity (Candida tropicalis [32]) was “inactive” and the Activity (Candida tropicalis [33]) was “inactive”. The Activity (Candida tropicalis [34]) was “inactive” and the Activity (Candida tropicalis [35]) was “inactive”.
